Measurements published in patent US10022359B2, “1,9-diazaspiro undecane compounds having multimodal activity against pain” (LABORATORIOS DEL DR. ESTEVE S.A., priority 2014, dated 2018).

Molecular target: human σ1 receptor and human μ-opioid receptor
Experiment: Human σ1 receptor and human μ-opioid receptor radioligand assays (dual binding)
Conditions: combined class for Ki-μ ([3H]-DAMGO, transfected CHO-K1 membranes) and Ki-σ1 ([3H](+)-pentazocine, transfected HEK-293 membranes)

Row | SMILES | Ki [nM]
1 | O=C(c1cscn1)N1CCOCC12CCN(CCc1ccccc1)CC2 [Example 16, (9-phenethyl-4-oxa-1,9-diazaspiro[5.5]undecan-1-yl)(thiazol-4-yl)methanone] | ≥ 500
2 | O=C(Cc1cccnc1)N1CCOCC12CCN(CCc1ccccc1)CC2 [Example 22, 1-(9-phenethyl-4-oxa-1,9-diazaspiro[5.5]undecan-1-yl)-2-(pyridin-3-yl)ethanone] | ≥ 500
3 | O=C(Cc1ccncc1)N1CCOCC12CCN(CCc1ccccc1)CC2 [Example 19, 1-(9-phenethyl-4-oxa-1,9-diazaspiro[5.5]undecan-1-yl)-2-(pyridin-4-yl)ethanone] | ≥ 500
4 | O=C(CN1CCC2(CC1)COCCN2C(=O)c1ccccc1)c1ccccc1 [Example 45, 2-(1-benzoyl-4-oxa-1,9-diazaspiro[5.5]undecan-9-yl)-1-phenylethanone] | ≥ 500
5 | O=C(c1ccccn1)N1CCOCC12CCN(CCc1ccccc1)CC2 [Example 11, (9-phenethyl-4-oxa-1,9-diazaspiro[5.5]undecan-1-yl)(pyridin-2-yl)methanone] | ≥ 500
6 | O=C(Cc1ccccn1)N1CCOCC12CCN(CCc1ccccc1)CC2 [Example 17, 1-(9-phenethyl-4-oxa-1,9-diazaspiro[5.5]undecan-1-yl)-2-(pyridin-2-yl)ethanone] | ≥ 500
7 | O=C(c1cncs1)N1CCOCC12CCN(CCc1ccccc1)CC2 [Example 20, (9-phenethyl-4-oxa-1,9-diazaspiro[5.5]undecan-1-yl)(thiazol-5-yl)methanone] | ≥ 500
8 | O=C(c1ccccc1)N1CCOCC12CCN(CC(O)c1ccccc1)CC2 (stereo not shown) [Example 51, (9-(2-hydroxy-2-phenylethyl)-4-oxa-1,9-diazaspiro[5.5]undecan-1-yl)(phenyl)methanone] | ≥ 500
9 | Fc1cnccc1CN1CCOCC12CCN(CCc1ccccc1)CC2 [Example 31, 1-((3-fluoropyridin-4-yl)methyl)-9-phenethyl-4-oxa-1,9-diazaspiro[5.5]undecane] | ≥ 500
10 | O=[N+]([O-])c1cccc(CCN2CCC3(CC2)COCCN3c2ccccc2)c1 [Example 41, 9-(3-nitrophenethyl)-1-phenyl-4-oxa-1,9-diazaspiro[5.5]undecane] | ≥ 500
11 | Nc1cccc(CCN2CCC3(CC2)COCCN3c2ccccc2)c1 [Example 50, 3-(2-(1-phenyl-4-oxa-1,9-diazaspiro[5.5]undecan-9-yl)ethyl)aniline] | ≥ 500
12 | O=C(c1cccnc1)N1CCOCC12CCN(CCc1ccccc1)CC2 [Example 14, (9-phenethyl-4-oxa-1,9-diazaspiro[5.5]undecan-1-yl)(pyridin-3-yl)methanone] | ≥ 500
13 | O=C(c1ccncc1)N1CCOCC12CCN(CCc1ccccc1)CC2 [Example 13, (9-phenethyl-4-oxa-1,9-diazaspiro[5.5]undecan-1-yl)(pyridin-4-yl)methanone] | ≥ 500
